Measurements as given in the NIST ThermoML archive (doi:10.1021/je900387e).
± gives the expanded uncertainty stated by the source.

Experiment: xn = mol fraction of the nth substance listed
Settings: Liquid, Pycnometric method

For `CCCCCl` [1-chlorobutane] + O=C=O, which mass density (322.7 K, 8980 kPa, x1 = 0.0243) is on record?
Its mass density is 377 ± 4 kg/m3.

What about the mass density (322.7 K, 8990 kPa, x1 = 0.0744) of the same molecule?
The mass density was 690 ± 4 kg/m3.

And the mass density (322.7 K, 9050 kPa, x1 = 0.0243)?
Its mass density is 387 ± 4 kg/m3.

What about the mass density (322.7 K, 9110 kPa, x1 = 0.0243) of the same molecule?
Its mass density is 397 ± 4 kg/m3.

What about the mass density (322.7 K, 9120 kPa, x1 = 0.0981) of the same molecule?
Its mass density is 754 ± 4 kg/m3.

What about the mass density (322.7 K, 9140 kPa, x1 = 0.0744) of the same molecule?
Its mass density is 698 ± 4 kg/m3.

What about the mass density (322.7 K, 9170 kPa, x1 = 0.0243) of the same molecule?
Its mass density is 407 ± 4 kg/m3.

And the mass density (322.7 K, 9240 kPa, x1 = 0.0243)?
The mass density was 418 ± 4 kg/m3.

And the mass density (322.7 K, 9280 kPa, x1 = 0.1488)?
Its mass density is 802 ± 4 kg/m3.

And the mass density (322.7 K, 9290 kPa, x1 = 0.0744)?
Its mass density is 705 ± 4 kg/m3.

And the mass density (322.7 K, 9300 kPa, x1 = 0.0981)?
The mass density was 759 ± 4 kg/m3.

And the mass density (322.7 K, 9320 kPa, x1 = 0.0243)?
The mass density was 430 ± 4 kg/m3.

What about the mass density (322.7 K, 9390 kPa, x1 = 0.0243) of the same molecule?
The mass density was 443 ± 4 kg/m3.

What about the mass density (322.7 K, 9470 kPa, x1 = 0.0243) of the same molecule?
Its mass density is 456 ± 4 kg/m3.

And the mass density (322.7 K, 9470 kPa, x1 = 0.0744)?
Its mass density is 713 ± 4 kg/m3.

What about the mass density (322.7 K, 9500 kPa, x1 = 0.0981) of the same molecule?
The mass density was 764 ± 4 kg/m3.

What about the mass density (322.7 K, 9560 kPa, x1 = 0.0243) of the same molecule?
Its mass density is 470 ± 4 kg/m3.

What about the mass density (322.7 K, 9600 kPa, x1 = 0.1488) of the same molecule?
The mass density was 807 ± 4 kg/m3.

What about the mass density (322.7 K, 9630 kPa, x1 = 0.0243) of the same molecule?
The mass density was 482 ± 4 kg/m3.

And the mass density (322.7 K, 9700 kPa, x1 = 0.0243)?
Its mass density is 494 ± 4 kg/m3.

And the mass density (322.7 K, 9700 kPa, x1 = 0.0744)?
Its mass density is 721 ± 4 kg/m3.

What about the mass density (322.7 K, 9720 kPa, x1 = 0.0981) of the same molecule?
Its mass density is 769 ± 4 kg/m3.

What about the mass density (322.7 K, 9740 kPa, x1 = 0.0243) of the same molecule?
The mass density was 501 ± 4 kg/m3.

And the mass density (322.7 K, 9790 kPa, x1 = 0.0243)?
Its mass density is 507 ± 4 kg/m3.

And the mass density (322.7 K, 9810 kPa, x1 = 0.0243)?
The mass density was 510 ± 4 kg/m3.

And the mass density (322.7 K, 9940 kPa, x1 = 0.0744)?
The mass density was 729 ± 4 kg/m3.

And the mass density (322.7 K, 9950 kPa, x1 = 0.1488)?
The mass density was 811 ± 4 kg/m3.

What about the mass density (322.7 K, 10080 kPa, x1 = 0.0981) of the same molecule?
The mass density was 777 ± 4 kg/m3.

And the mass density (322.7 K, 10210 kPa, x1 = 0.0744)?
Its mass density is 738 ± 4 kg/m3.

What about the mass density (322.7 K, 10310 kPa, x1 = 0.1488) of the same molecule?
The mass density was 815 ± 4 kg/m3.

What about the mass density (322.7 K, 10480 kPa, x1 = 0.0981) of the same molecule?
The mass density was 785 ± 4 kg/m3.

And the mass density (322.7 K, 10520 kPa, x1 = 0.0744)?
The mass density was 746 ± 4 kg/m3.

What about the mass density (322.7 K, 10730 kPa, x1 = 0.1488) of the same molecule?
The mass density was 820 ± 4 kg/m3.

What about the mass density (322.7 K, 10870 kPa, x1 = 0.0744) of the same molecule?
Its mass density is 755 ± 4 kg/m3.

And the mass density (322.7 K, 10920 kPa, x1 = 0.0981)?
Its mass density is 792 ± 4 kg/m3.

And the mass density (322.7 K, 11110 kPa, x1 = 0.1488)?
Its mass density is 823 ± 4 kg/m3.

What about the mass density (322.7 K, 11230 kPa, x1 = 0.0744) of the same molecule?
Its mass density is 764 ± 4 kg/m3.

What about the mass density (322.7 K, 11440 kPa, x1 = 0.0981) of the same molecule?
The mass density was 802 ± 4 kg/m3.

And the mass density (322.7 K, 11540 kPa, x1 = 0.1488)?
The mass density was 828 ± 4 kg/m3.

What about the mass density (322.7 K, 11680 kPa, x1 = 0.0744) of the same molecule?
The mass density was 773 ± 4 kg/m3.

And the mass density (322.7 K, 12000 kPa, x1 = 0.0981)?
Its mass density is 810 ± 4 kg/m3.

What about the mass density (322.7 K, 12020 kPa, x1 = 0.1488) of the same molecule?
The mass density was 832 ± 4 kg/m3.

And the mass density (322.7 K, 12170 kPa, x1 = 0.0744)?
Its mass density is 782 ± 4 kg/m3.

And the mass density (322.7 K, 12270 kPa, x1 = 0.1488)?
Its mass density is 835 ± 4 kg/m3.

What about the mass density (322.7 K, 12520 kPa, x1 = 0.1488) of the same molecule?
The mass density was 837 ± 4 kg/m3.

And the mass density (322.7 K, 12600 kPa, x1 = 0.0981)?
Its mass density is 818 ± 4 kg/m3.

And the mass density (322.7 K, 12720 kPa, x1 = 0.0744)?
The mass density was 792 ± 4 kg/m3.

What about the mass density (322.7 K, 12780 kPa, x1 = 0.1488) of the same molecule?
Its mass density is 839 ± 4 kg/m3.

What about the mass density (322.7 K, 13030 kPa, x1 = 0.0981) of the same molecule?
The mass density was 824 ± 4 kg/m3.

What about the mass density (322.7 K, 13270 kPa, x1 = 0.1488) of the same molecule?
Its mass density is 844 ± 4 kg/m3.

And the mass density (322.7 K, 13320 kPa, x1 = 0.0744)?
The mass density was 802 ± 4 kg/m3.

And the mass density (322.7 K, 13530 kPa, x1 = 0.0981)?
Its mass density is 830 ± 4 kg/m3.

And the mass density (322.7 K, 13570 kPa, x1 = 0.1488)?
Its mass density is 846 ± 4 kg/m3.

And the mass density (322.7 K, 13850 kPa, x1 = 0.1488)?
Its mass density is 849 ± 4 kg/m3.

And the mass density (322.7 K, 14020 kPa, x1 = 0.0744)?
Its mass density is 812 ± 4 kg/m3.

And the mass density (322.7 K, 14030 kPa, x1 = 0.0981)?
Its mass density is 836 ± 4 kg/m3.

What about the mass density (322.7 K, 14170 kPa, x1 = 0.1488) of the same molecule?
Its mass density is 851 ± 4 kg/m3.

What about the mass density (322.7 K, 14470 kPa, x1 = 0.1488) of the same molecule?
Its mass density is 853 ± 4 kg/m3.

What about the mass density (322.7 K, 14590 kPa, x1 = 0.0981) of the same molecule?
Its mass density is 843 ± 4 kg/m3.

What about the mass density (322.7 K, 14600 kPa, x1 = 0.0744) of the same molecule?
Its mass density is 820 ± 4 kg/m3.

And the mass density (322.7 K, 14740 kPa, x1 = 0.1488)?
The mass density was 856 ± 4 kg/m3.

And the mass density (322.7 K, 14960 kPa, x1 = 0.0744)?
Its mass density is 824 ± 4 kg/m3.

What about the mass density (322.7 K, 15170 kPa, x1 = 0.0981) of the same molecule?
Its mass density is 849 ± 4 kg/m3.

What about the mass density (322.7 K, 15190 kPa, x1 = 0.0744) of the same molecule?
Its mass density is 828 ± 4 kg/m3.

And the mass density (324 K, 9110 kPa, x1 = 0.0483)?
The mass density was 519 ± 4 kg/m3.

And the mass density (324 K, 9140 kPa, x1 = 0.0483)?
The mass density was 527 ± 4 kg/m3.

What about the mass density (324 K, 9190 kPa, x1 = 0.0483) of the same molecule?
Its mass density is 537 ± 4 kg/m3.

And the mass density (324 K, 9250 kPa, x1 = 0.0483)?
The mass density was 546 ± 4 kg/m3.

What about the mass density (324 K, 9310 kPa, x1 = 0.0483) of the same molecule?
Its mass density is 556 ± 4 kg/m3.

What about the mass density (324 K, 9370 kPa, x1 = 0.0483) of the same molecule?
Its mass density is 566 ± 4 kg/m3.

What about the mass density (324 K, 9450 kPa, x1 = 0.0483) of the same molecule?
The mass density was 576 ± 4 kg/m3.

And the mass density (324 K, 9540 kPa, x1 = 0.0483)?
Its mass density is 587 ± 4 kg/m3.

And the mass density (324 K, 9630 kPa, x1 = 0.0483)?
The mass density was 599 ± 4 kg/m3.

What about the mass density (324 K, 9750 kPa, x1 = 0.0483) of the same molecule?
Its mass density is 611 ± 4 kg/m3.

What about the mass density (324 K, 9850 kPa, x1 = 0.0483) of the same molecule?
Its mass density is 620 ± 4 kg/m3.

What about the mass density (324 K, 10010 kPa, x1 = 0.0483) of the same molecule?
Its mass density is 633 ± 4 kg/m3.

What about the mass density (324 K, 10200 kPa, x1 = 0.0483) of the same molecule?
Its mass density is 646 ± 4 kg/m3.

And the mass density (324 K, 10420 kPa, x1 = 0.0483)?
The mass density was 660 ± 4 kg/m3.

And the mass density (324 K, 10690 kPa, x1 = 0.0483)?
The mass density was 674 ± 4 kg/m3.

What about the mass density (324 K, 11030 kPa, x1 = 0.0483) of the same molecule?
Its mass density is 689 ± 4 kg/m3.

What about the mass density (324 K, 11440 kPa, x1 = 0.0483) of the same molecule?
The mass density was 705 ± 4 kg/m3.

And the mass density (324 K, 11960 kPa, x1 = 0.0483)?
Its mass density is 721 ± 4 kg/m3.

What about the mass density (324 K, 12550 kPa, x1 = 0.0483) of the same molecule?
The mass density was 738 ± 4 kg/m3.

What about the mass density (324 K, 13030 kPa, x1 = 0.0483) of the same molecule?
The mass density was 749 ± 4 kg/m3.
